{"source": "patent US9572786B2", "about": "“Use of capsiate or dihydrocapsidate” (Catholic University Industry Academy Cooperation Foundation, priority 2007, dated 2017)", "key": {"[1]": {"test_system": "IL-2", "experiment": "Secretion of IL-2 by T cells, ELISA", "format": "cell-based, C57/BL6 mouse", "settings": "mouse spleen T cells of Example 14-1; vs control group", "description": "In order to investigate the effect of capsiate on activation of T cells, the production of IL-2 by the T cells the proliferation of which was induced in Example 14-1 was compared with the non-capsiate-treated control group. IL-2 is a T cell proliferation factor secreted from stimulated T cells and acts as a cytokine affecting the proliferation of T helper cells, cytotoxic T (TC) cells and natural killer (NK) cells, activation of T cells, proliferation of B cells, and production of antibody.\nSpecifically, the degree of IL-2 production was measured by ELISA. IL-2 recognition antibody was attached on a 96-well plate. Next day, after suppressing non-specific recognition using blocking buffer (PBS containing 5% BSA), cultured T cells were added to the plate and incubated at room temperature for 4 hours. Subsequently, after incubating using biotinylated IL-2 secondary antibody (Becton Dikinson, USA), absorbance (540 nm) was measured using an ELISA reader using biotin-recognizing enzyme antibody (streptavidine-conjugated HRP, Becton Dikinson, USA), while varying the substrate."}, "[2]": {"test_system": "VEGF", "experiment": "VEGF expression in mouse skin, Western blotting", "format": "in vivo", "settings": "treated prior to UV irradiation", "experimental": "In order to investigate the effect of capsiate on various intracellular angiogenesis-related expression factors, the inhibition effect of capsiate on angiogenesis factors induced by UV was evaluated using the mouse tissue of Example 5.\nWestern blotting was carried out in the same manner as Example 6 using the proteins isolated from the mouse skin tissue of each test group in Example 6, in order to investigate of capsiate on VEGF, which plays an important role in angiogenesis. In order to investigate the level of VEGF expression, VEGF antibody (Santa Cruz, USA) and HRP-conjugated secondary antibody (1:10,000, Zymed) were used."}, "[3]": {"test_system": "Lck", "experiment": "Tyrosine phosphorylation in T cells, Western blotting with anti-PY antibody", "format": "cell-based, C57/BL6 mouse", "settings": "mouse spleen T cells; 5 and 25 uM; α-CD3 and α-CD4 or α-CD3", "experimental": "Western blotting was carried out using anti-tyrosine phosphorylation (anti-PY) antibody in order to investigate the mechanism by which the proliferation of T cells is inhibited by capsiate.\nSpecifically, 5×10^5 of the T cells isolated in Example 14-1 was placed on a 96-well plate and capsiate was treated at concentrations of 5 and 25 uM. After treating with 2 μg/mL α-CD3 and α-CD4, or 2 μg/mL α-CD3, followed by incubation for 10 minutes in ice and then incubation for 10 minutes at 37° C., centrifuge was carried out. The cells obtained from the centrifuge was lysed using RIPA buffer containing 2 mM EDTA, 137 mM NaCl, 20 mM Tris-HCl (pH 8.0), 1 mM sodium vanadate, 10 mM NaF, 1 mM phenylmethanesulfonyl fluoride (PMSF), 1% NP-40, 10% glycerol and protease inhibitor cocktail, and subjected to SDS-PAGE electrophoresis using 10% acrylamide gel in order to isolate the proteins. The isolated proteins were transferred to a nylon membrane and tyrosine phosphorylated proteins were separated using mouse anti-PY antibody (Becton Dickison, USA) and anti-mouse IgG-HRP conjugation antibody (1; 10,000, Zymed) as the secondary antibody. The isolated proteins were detected by ECL (Amersham, USA) and visualized using RAS 3000 imaging system (Fuji Film, Japan)."}, "[4]": {"test_system": "JNK", "experiment": "MAPK signaling in mouse skin tissue, Western blotting: JNK", "format": "in vivo", "settings": "hairless mouse; UV+CPT vs UV with acetone only", "experimental": "In order to investigate the intracellular mechanism (signaling) related with the inhibition of COX-2 expression by capsiate, Western blotting was carried out for MAPK signaling-related proteins (ERK, p-ERK, p38, p-p38 and JNK, p-JNK) as in Example 2-2, using proteins isolated from the mouse skin tissue."}, "[5]": {"test_system": "NF-κB", "experiment": "UV-induced NF-κB activation, immunohistochemical staining", "format": "cell-based, human", "settings": "HaCaT cells; 25 μM; UV 100 J/m^2; 4 hours", "experimental": "In order to investigate whether the transcription factor NF-κB is activated, the human keratinocyte cell line HaCaT cells were stained by immunohistochemical staining as follows.\nThe cells were placed on a 14 mm culture slide and cultured for 24 hours in DMEM containing 10% FBS. Subsequently, the cells were cultured for 24 hours in DMEM containing 1% FBS until starvation. Then, after treating with 25 μM capsiate for 30 minutes, followed by washing 3 times with PBS, UV was irradiated at an intensity of 100 J/m^2. Immediately after the UV irradiation, the cells were washed again with PBS and further cultured for 4 hours in DMEM containing 1% FBS, which was treated with capsiate at the same concentration as in the pre-treatment. The cells were fixed for 5 minutes using methanol for immunohistochemical staining.\nThe fixed cells were blocked using 10% normal goat serum and washed 3 times with PBS. After fluorescence staining NF-κB using rabbit anti-NF-κB antibody (Santa Cruz, USA) and Alexa 488-labeled anti-rabbit IgG secondary antibody (Invitrogen, USA), counter staining was carried out using Hoechst (Sigma, St. Louis, Mo.)."}, "[6]": {"test_system": "IL-6", "experiment": "UV-induced IL-6 mRNA in hairless mouse skin, RT-PCR", "format": "in vivo", "settings": "200 μL of 1 mM topically 1 hour before UV 5 kJ/m^2 once, 6 hours later", "experimental": "In order to investigate the effect of capsiate on the production of IL-6 and TNF-α induced in skin tissue during inflammatory response, the inhibition ability of capsiate against the expression of the pro-inflammatory cytokines was evaluated in animal model as follows. Test groups were as follows: non-treated group—treated with acetone only without UV irradiation; test group A—treated with 200 μL of 1 mM capsiate dissolved in acetone without UV irradiation; UV group—treated with acetone and UV; test group B—treated with 200 μL of 1 mM capsiate dissolved in acetone followed by UV irradiation 1 hour later.\nTo this end, acetone and capsiate were treated prior to UV irradiation. After treating with UV once at an intensity of 5 kJ/m^2, hairless mouse was euthanized 6 hours later. mRNA was extracted from the mouse tissue obtained by skin biopsy and RT-PCR was carried out as follows. For RNA extraction from the tissue, each mouse tissue obtained by skin biopsy was quickly frozen in liquid nitrogen and ground finely using a mortar. RNA was extracted from the mouse tissue using Trizol (Invitrogen, USA), and PCR (PTC-225 Peltier thermal cycler, MJ Research, USA) was carried out using it as template and using a commercial kit (reverse transcription system, Qiagen, USA). As a result, cDNA was prepared from each group. […]"}}, "data": [{"compound": "COc1cc(COC(=O)CCCC/C=C/C(C)C)ccc1O", "note": "[capsiate]", "values": [{"measurement": "IL-2 production by T cells", "setting": "[1]", "value": "significantly decreased"}, {"measurement": "level of VEGF expression in the mouse skin tissue", "setting": "[2]", "value": "decreased"}, {"measurement": "tyrosine phosphorylation in T cells", "setting": "[3]", "value": "inhibited"}, {"measurement": "JNK (phosphorylation) in mouse skin tissue", "setting": "[4]", "value": "no significant difference"}, {"measurement": "UV-induced migration of NF-κB into the nuclei", "setting": "[5]", "value": "inhibits"}, {"measurement": "UV-induced expression of IL-6 (mRNA) in skin tissue", "setting": "[6]", "value": "decrease"}]}]}
